Measured values from patent publication US20060069132A1, “Azolecarboxamide herbicides” (priority 2004, published 2006).

What was measured:
giant foxtail [1] = test: Test B pre-/postemergence herbicide test; format: in vivo, Setaria faberi; conditions: for Foxtail, Giant plant response rating: postemergence, visual rating, scale 0 (no effect) to 100 (complete control)
Summary of the method: (§1)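 Flooded paddy rice and barnyardgrass were treated at the 2-leaf stage; upland plantings received compound either on sown seed or on 1- to 4-leaf seedlings. All were kept 13–15 days in a greenhouse and scored visually, 0–100, relative to untreated plants.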

pigweed = test: Test B pre-/postemergence herbicide test; format: in vivo, Amaranthus retroflexus; conditions: for Pigweed plant response rating: postemergence, visual rating, scale 0 (no effect) to 100 (complete control)
Summary of the method: as §1

corn = test: Test B pre-/postemergence herbicide test; format: in vivo, Zea mays; conditions: for Corn plant response rating: postemergence, visual rating, scale 0 (no effect) to 100 (complete control)
Summary of the method: as §1

wild oat = test: Test B postemergence herbicide test; format: in vivo, Avena fatua; conditions: postemergence, visual rating, scale 0 (no effect) to 100 (complete control)
Summary of the method: (§2)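 Visual ratings, 0 (no effect) to 100 (complete control), made versus controls after 13–15 d greenhouse. Paddy plants treated at 2-leaf stage; postemergence plants at 1- to 4-leaf stage, 2–18 cm tall.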

morningglory [2] = test: Test A pre-/postemergence herbicide test; format: in vivo, Ipomoea spp.
Summary of the method: (§3)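 Visual injury scores on a 0–100 scale (100 = complete control) taken about ten days post-treatment in greenhouse against untreated controls; dash means no result. Treatments: preemergence soil spray and postemergence spray to runoff on one- to two-leaf plants 2 to 10 cm tall, surfactant-containing formulation.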

large crabgrass [3] = test: Test B pre-/postemergence herbicide test; format: in vivo, Digitaria sanguinalis; conditions: for Crabgrass, Large plant response rating: postemergence, visual rating, scale 0 (no effect) to 100 (complete control)
Summary of the method: as §1

lambsquarters = test: Test B pre-/postemergence herbicide test; format: in vivo, Chenopodium album; conditions: for Lambsquarters plant response rating: postemergence, visual rating, scale 0 (no effect) to 100 (complete control)
Summary of the method: as §1

rice = test: Test B flooded paddy test; format: in vivo, Oryza sativa; conditions: 1000 g ai/ha, visual rating, scale 0 to 100 (0 no effect, 100 complete control), 13 to 15 days
Summary of the method: (§4)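 After treating 2-leaf paddy plants or 2–18 cm postemergence plants (1 to 4 leaves) with formulated chemical, researchers kept them in a greenhouse for 13–15 days. Effects were judged visually versus controls: 0 indicates none, 100 total control.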

[4] = tested on: small flower umbrella sedge; test: Test B flooded paddy test; format: in vivo, Cyperus difformis; conditions: 1000 g ai/ha, visual rating, scale 0 to 100 (0 no effect, 100 complete control), 13 to 15 days
Summary of the method: as §4

barnyardgrass [5] = test: Test A pre-/postemergence herbicide test; format: in vivo, Echinochloa crus-galli
Summary of the method: as §3

ducksalad = test: Test B flooded paddy test; format: in vivo, Heteranthera limosa; conditions: 1000 g ai/ha, visual rating, scale 0 to 100 (0 no effect, 100 complete control), 13 to 15 days
Summary of the method: as §4

large crabgrass [6] = test: Test A pre-/postemergence herbicide test; format: in vivo, Digitaria sanguinalis
Summary of the method: as §3

Surinam grass = test: Test B pre-/postemergence herbicide test; format: in vivo, Urochloa decumbens; conditions: for Surinam Grass plant response rating: postemergence, visual rating, scale 0 (no effect) to 100 (complete control)
Summary of the method: as §1

velvetleaf [7] = test: Test A pre-/postemergence herbicide test; format: in vivo, Abutilon theophrasti
Summary of the method: as §3

blackgrass = test: Test B postemergence herbicide test; format: in vivo, Alopecurus myosuroides; conditions: postemergence, visual rating, scale 0 (no effect) to 100 (complete control)
Summary of the method: as §4

cocklebur = test: Test B pre-/postemergence herbicide test; format: in vivo, Xanthium strumarium; conditions: for Cocklebur plant response rating: postemergence, visual rating, scale 0 (no effect) to 100 (complete control)
Summary of the method: as §1

barnyardgrass [8] = test: Test B flooded paddy test; format: in vivo, Echinochloa crus-galli; conditions: 1000 g ai/ha, visual rating, scale 0 to 100 (0 no effect, 100 complete control), 13 to 15 days
Summary of the method: as §4

wheat = test: Test B postemergence herbicide test; format: in vivo, Triticum aestivum; design: key to Wheat plant response rating: 0 = no effect, 100 = complete control; conditions: postemergence, visual rating, scale 0 (no effect) to 100 (complete control)
Summary of the method: as §2

barnyardgrass [9] = test: Test B pre-/postemergence herbicide test; format: in vivo, Echinochloa crus-galli; conditions: for Barnyardgrass plant response rating: postemergence, visual rating, scale 0 (no effect) to 100 (complete control)
Summary of the method: as §1

giant foxtail [10] = test: Test A pre-/postemergence herbicide test; format: in vivo, Setaria faberi
Summary of the method: as §3

velvetleaf [11] = test: Test B pre-/postemergence herbicide test; format: in vivo, Abutilon theophrasti; conditions: for Velvetleaf plant response rating: postemergence, visual rating, scale 0 (no effect) to 100 (complete control)
Summary of the method: as §1

redroot pigweed = test: Test A pre-/postemergence herbicide test; format: in vivo, Amaranthus retroflexus
Summary of the method: as §3

morningglory [12] = test: Test B pre-/postemergence herbicide test; format: in vivo, Ipomoea coccinea; conditions: for Morningglory plant response rating: postemergence, visual rating, scale 0 (no effect) to 100 (complete control)
Summary of the method: as §1

[13] = 125 g ai/ha, 0 = no effect, 100 = complete control, preemergence
[14] = 500 g ai/ha, visual rating 0-100, 0 no effect, 100 complete control, preemergence
[15] = Postemergence, 500 g ai/ha, 0 to 100 scale, 0 no effect, 100 complete control
[16] = Postemergence, 2000 g ai/ha, 0 to 100 scale, 0 no effect, 100 complete control
[17] = Preemergence, 2000 g ai/ha, visual rating, 0 to 100 scale (0 no effect, 100 complete control)
[18] = preemergence, 500 g ai/ha, visual injury, 0 to 100 scale (0 no effect, 100 complete control)

SMILES: CC(=O)c1cccc(NC(=O)c2cn(C(C)C)nc2C)c1 [Compound 179]
- Foxtail, Giant plant response rating (0 to 100 scale) (giant foxtail [1]; [13]): 0
- Plant response rating, Foxtail, Giant (giant foxtail [1]; [14]): 0
- Foxtail, Giant plant response rating (giant foxtail [1]; 125 g ai/ha): 0
- Foxtail, Giant plant response rating (giant foxtail [1]; 500 g ai/ha): 0
- Pigweed plant response rating (0 to 100 scale) (pigweed; [13]): 0
- Plant response rating, Pigweed (pigweed; [14]): 0
- Pigweed plant response rating (pigweed; 125 g ai/ha): 0
- Pigweed plant response rating (pigweed; 500 g ai/ha): 0
- Corn plant response rating (0 to 100 scale) (corn; [13]): 0
- Plant response rating, Corn (corn; [14]): 0
- Corn plant response rating (corn; 125 g ai/ha): 0
- Corn plant response rating (corn; 500 g ai/ha): 0
- Oat, Wild plant response rating (wild oat; 125 g ai/ha): 0
- Oat, Wild plant response rating (wild oat; 500 g ai/ha): 0
- Morningglory plant response rating (morningglory [2]; [15]): 10
- Plant response rating, Morningglory (morningglory [2]; [16]): 30
- Morningglory plant response rating (morningglory [2]; [17]): 5
- Morningglory plant response rating (morningglory [2]; [18]): 0
- Crabgrass, Large plant response rating (0 to 100 scale) (large crabgrass [3]; [13]): 0
- Plant response rating, Crabgrass, Large (large crabgrass [3]; [14]): 0
- Crabgrass, Large plant response rating (large crabgrass [3]; 125 g ai/ha): 0
- Crabgrass, Large plant response rating (large crabgrass [3]; 500 g ai/ha): 0
- Lambsquarters plant response rating (0 to 100 scale) (lambsquarters; [13]): 0
- Plant response rating, Lambsquarters (lambsquarters; [14]): 0
- Lambsquarters plant response rating (lambsquarters; 125 g ai/ha): 0
- Lambsquarters plant response rating (lambsquarters; 500 g ai/ha): 0
- Rice plant response rating (rice): 0
- Sedge, Umbrella plant response rating [4]: 0
- Barnyardgrass plant response rating (barnyardgrass [5]; [15]): 5
- Plant response rating, Barnyardgrass (barnyardgrass [5]; [16]): 10
- Barnyardgrass plant response rating (barnyardgrass [5]; [17]): 40
- Barnyardgrass plant response rating (barnyardgrass [5]; [18]): 0
- Ducksalad plant response rating (ducksalad): 0
- Crabgrass, Large plant response rating (large crabgrass [6]; [15]): 10
- Plant response rating, Crabgrass, Large (large crabgrass [6]; [16]): 10
- Crabgrass, Large plant response rating (large crabgrass [6]; [17]): 50
- Crabgrass, Large plant response rating (large crabgrass [6]; [18]): 0
- Surinam Grass plant response rating (0 to 100 scale) (Surinam grass; [13]): 0
- Plant response rating, Surinam Grass (Surinam grass; [14]): 0
- Surinam Grass plant response rating (Surinam grass; 125 g ai/ha): 0
- Surinam Grass plant response rating (Surinam grass; 500 g ai/ha): 0
- Velvetleaf plant response rating (velvetleaf [7]; [15]): 0
- Plant response rating, Velvetleaf (velvetleaf [7]; [16]): 5
- Velvetleaf plant response rating (velvetleaf [7]; [17]): 0
- Velvetleaf plant response rating (velvetleaf [7]; [18]): 0
- Blackgrass plant response rating (blackgrass; 125 g ai/ha): 0
- Blackgrass plant response rating (blackgrass; 500 g ai/ha): 0
- Cocklebur plant response rating (0 to 100 scale) (cocklebur; [13]): 0
- Plant response rating, Cocklebur (cocklebur; [14]): 0
- Cocklebur plant response rating (cocklebur; 125 g ai/ha): 0
- Cocklebur plant response rating (cocklebur; 500 g ai/ha): 0
- Barnyardgrass plant response rating (barnyardgrass [8]): 0
- Wheat plant response rating (wheat; 125 g ai/ha): 0
- Wheat plant response rating (wheat; 500 g ai/ha): 0
- Barnyardgrass plant response rating (0 to 100 scale) (barnyardgrass [9]; [13]): 0
- Plant response rating, Barnyardgrass (barnyardgrass [9]; [14]): 0
- Barnyardgrass plant response rating (barnyardgrass [9]; 125 g ai/ha): 0
- Barnyardgrass plant response rating (barnyardgrass [9]; 500 g ai/ha): 0
- Foxtail, Giant plant response rating (giant foxtail [10]; [15]): 0
- Plant response rating, Foxtail, Giant (giant foxtail [10]; [16]): 10
- Foxtail, Giant plant response rating (giant foxtail [10]; [17]): 10
- Foxtail, Giant plant response rating (giant foxtail [10]; [18]): 0
- Velvetleaf plant response rating (0 to 100 scale) (velvetleaf [11]; [13]): 0
- Plant response rating, Velvetleaf (velvetleaf [11]; [14]): 0
- Velvetleaf plant response rating (velvetleaf [11]; 125 g ai/ha): 0
- Velvetleaf plant response rating (velvetleaf [11]; 500 g ai/ha): 0
- Pigweed plant response rating (redroot pigweed; [15]): 0
- Plant response rating, Pigweed (redroot pigweed; [16]): 10
- Pigweed plant response rating (redroot pigweed; [17]): 35
- Pigweed plant response rating (redroot pigweed; [18]): 0
- Morningglory plant response rating (0 to 100 scale) (morningglory [12]; [13]): 0
- Plant response rating, Morningglory (morningglory [12]; [14]): 0
- Morningglory plant response rating (morningglory [12]; 125 g ai/ha): 0
- Morningglory plant response rating (morningglory [12]; 500 g ai/ha): 0
